Results on 67 molecules are retold here after patent publication US12421225B2, “Heteroaromatic amide derivative and medicament containing the same” (KAKEN PHARMACEUTICAL CO., LTD., priority 2018, dated 2025).

human Nav1.7, sequence (Q15858 whole entry): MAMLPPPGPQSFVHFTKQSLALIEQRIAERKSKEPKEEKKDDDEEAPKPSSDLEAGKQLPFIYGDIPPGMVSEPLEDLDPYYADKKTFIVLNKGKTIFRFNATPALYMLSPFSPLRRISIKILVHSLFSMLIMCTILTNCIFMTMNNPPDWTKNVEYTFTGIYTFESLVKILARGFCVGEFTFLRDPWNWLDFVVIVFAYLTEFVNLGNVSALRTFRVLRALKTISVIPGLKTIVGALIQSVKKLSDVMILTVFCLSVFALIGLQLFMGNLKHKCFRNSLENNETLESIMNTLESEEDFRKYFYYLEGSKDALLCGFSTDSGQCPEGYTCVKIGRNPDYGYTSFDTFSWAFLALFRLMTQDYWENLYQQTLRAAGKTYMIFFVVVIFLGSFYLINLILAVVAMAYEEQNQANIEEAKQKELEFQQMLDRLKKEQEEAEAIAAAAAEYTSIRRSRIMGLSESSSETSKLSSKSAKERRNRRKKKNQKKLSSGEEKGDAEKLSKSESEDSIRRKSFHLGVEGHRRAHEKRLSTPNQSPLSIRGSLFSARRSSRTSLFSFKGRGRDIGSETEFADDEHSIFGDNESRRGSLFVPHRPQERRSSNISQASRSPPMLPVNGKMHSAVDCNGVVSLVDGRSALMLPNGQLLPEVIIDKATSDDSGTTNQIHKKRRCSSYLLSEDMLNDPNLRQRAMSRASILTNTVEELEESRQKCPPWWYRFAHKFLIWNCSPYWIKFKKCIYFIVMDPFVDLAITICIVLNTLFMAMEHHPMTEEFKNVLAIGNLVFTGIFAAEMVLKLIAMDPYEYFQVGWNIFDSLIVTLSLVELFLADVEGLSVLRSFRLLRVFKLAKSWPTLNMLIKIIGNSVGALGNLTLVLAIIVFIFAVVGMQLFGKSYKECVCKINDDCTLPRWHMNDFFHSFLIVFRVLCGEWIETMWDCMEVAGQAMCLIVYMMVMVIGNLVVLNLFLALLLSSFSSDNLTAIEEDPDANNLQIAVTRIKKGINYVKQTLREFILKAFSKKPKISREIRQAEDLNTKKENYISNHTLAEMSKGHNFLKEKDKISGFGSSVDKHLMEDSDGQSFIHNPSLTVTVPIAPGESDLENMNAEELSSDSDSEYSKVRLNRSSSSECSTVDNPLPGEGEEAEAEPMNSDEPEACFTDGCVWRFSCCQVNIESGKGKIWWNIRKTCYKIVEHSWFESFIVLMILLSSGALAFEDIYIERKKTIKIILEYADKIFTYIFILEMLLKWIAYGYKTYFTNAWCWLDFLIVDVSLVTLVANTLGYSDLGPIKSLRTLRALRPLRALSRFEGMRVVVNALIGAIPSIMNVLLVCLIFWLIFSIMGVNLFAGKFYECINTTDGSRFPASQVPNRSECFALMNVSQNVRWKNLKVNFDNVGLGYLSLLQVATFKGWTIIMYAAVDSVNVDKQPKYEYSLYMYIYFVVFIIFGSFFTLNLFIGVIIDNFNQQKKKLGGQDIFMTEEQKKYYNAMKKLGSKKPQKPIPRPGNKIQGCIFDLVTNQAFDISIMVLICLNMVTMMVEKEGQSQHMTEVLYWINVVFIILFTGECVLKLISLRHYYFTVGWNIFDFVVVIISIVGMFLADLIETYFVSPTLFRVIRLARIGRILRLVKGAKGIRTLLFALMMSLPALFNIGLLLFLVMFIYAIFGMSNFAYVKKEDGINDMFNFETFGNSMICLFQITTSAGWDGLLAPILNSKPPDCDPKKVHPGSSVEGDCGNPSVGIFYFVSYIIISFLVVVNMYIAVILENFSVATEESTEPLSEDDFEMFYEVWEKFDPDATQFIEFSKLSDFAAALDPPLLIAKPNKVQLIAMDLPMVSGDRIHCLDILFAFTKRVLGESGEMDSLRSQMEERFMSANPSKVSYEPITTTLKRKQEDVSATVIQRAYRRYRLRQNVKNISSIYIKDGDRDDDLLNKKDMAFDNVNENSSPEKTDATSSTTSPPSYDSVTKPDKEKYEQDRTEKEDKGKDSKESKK
human Nav1.7, sequence (Q07699 19-218 partner): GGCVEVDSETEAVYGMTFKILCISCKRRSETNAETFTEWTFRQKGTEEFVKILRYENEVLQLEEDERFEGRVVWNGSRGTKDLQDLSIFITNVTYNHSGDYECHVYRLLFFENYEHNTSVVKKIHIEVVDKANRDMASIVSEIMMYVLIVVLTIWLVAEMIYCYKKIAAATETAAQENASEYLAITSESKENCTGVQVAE

The target of this assay is human Nav1.7 (Homo sapiens (Human), UniProt Q15858). In words: Human Nav1.7 inhibitory activity evaluation (automated patch clamp QPatch16X, HEK293A cells stably expressing human Nav1.7 and human Navβ1). It counts as cell-based. The settings on record: human Nav1.7, automated patch clamp. The essentials:
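IC50 calculated from the concentration-response of inward current evoked by the second −10 mV, 50 ms depolarisation, which follows a 15 s conditioning step at roughly 30-40% inactivation and a 100 ms −120 mV interval. Cells: HEK293A expressing human Nav1.7/Navβ1, automated patch clamp, room temperature, 0.1% DMSO final.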
By IC50 is commonly meant the concentration that gives 50% inhibition. A high value points to a need for much substance. On to `Cc1cccc(-c2c(C(=O)N[C@H]3COc4ccc(C(F)(F)F)cc4C3)nn3c2NCCC3)n1` [Example 524], for which the IC50 was less than 10 µM.

Regarding `O=C(N[C@H]1COc2ccc(COCC(F)(F)F)cc2C1)c1nn2c(c1-c1ccccn1)NCCC2` [Example 525], the IC50 is less than 10 µM.

Molecule `O=C(N[C@H]1COc2ccc(C(F)(F)F)cc2C1)c1nn2c(c1-c1cccc(C(O)C(F)(F)F)n1)COCC2` (stereo partly shown) [Example 527] registered an IC50 of less than 1 µM.

In turn, `O=C(N[C@H]1COc2ccc(C(F)(F)F)cc2C1)c1nn2c(c1-c1ccccn1)COCCC2` [Example 528] displayed an IC50 of less than 10 µM.

Take `COc1cccc(-c2c(C(=O)N[C@H]3COc4ccc(C(F)(F)F)cc4C3O)nn3c2COCC3)n1` (stereo partly shown) [Example 529]: the IC50 was less than 1 µM.

`O=C(N[C@H]1COc2ccc(C(F)(F)F)cc2C1)c1cc2n(n1)CCC(COCC1(F)CC1)O2` (stereo partly shown) [Example 533] gave an IC50 of less than 1 µM.

In turn, `O=C(N[C@H]1COc2ccc(C(F)(F)F)cc2C1OCC(F)(F)F)c1cc2n(n1)CCC(C(F)F)O2` (stereo partly shown) [Example 536] returned an IC50 of less than 10 µM.

For `O=C(N[C@H]1COc2cc(C(F)(F)F)nn2C1)c1cc2n(n1)CCC(c1ccccc1F)O2` (stereo partly shown) [Example 537], the IC50 was less than 10 µM.

As for `O=C(N[C@H]1COc2ccc(C(F)(F)F)cc2C1)c1cc2n(n1)CC(COCC1CC1)CO2` (stereo partly shown) [Example 539], the IC50 was less than 10 µM.

For the molecule `O=C(NCC1COc2ccc(Cl)cc2C1)c1cc2n(n1)CCC(COC(F)(F)F)O2` (stereo not shown) [Example 542], the IC50 is less than 10 µM.

On to `CCC1(O)c2cc(C(F)(F)F)ccc2OC[C@@H]1NC(=O)c1cc2n(n1)CCC(C(F)F)O2` (stereo partly shown) [Example 544], for which the IC50 is less than 10 µM.

`O=C(N[C@H]1COc2ccc(COCC(F)(F)F)cc2C1)c1cc2n(n1)CCC1(CC1)CO2` [Example 545] displayed an IC50 of less than 1 µM.

With `O=C(N[C@H]1COc2ccc(C(F)(F)F)cc2C1OC(F)(F)F)c1cc2n(n1)CCC(C(F)F)O2` (stereo partly shown) [Example 546], the IC50 was less than 1 µM.

`O=C(N[C@H]1COc2ccc(Cl)cc2C1)c1cn2c(n1)CC(CNCC(F)(F)F)CO2` (stereo partly shown) [Example 548] returned an IC50 of less than 10 µM.

As to `CCC1CCn2nc(C(=O)N[C@H]3COc4ccc(C(F)(F)F)nc4C3)cc2O1` (stereo partly shown) [Example 549], the IC50 is less than 10 µM.

The molecule `O=C(N[C@H]1COc2ccc(C(F)(F)F)nc2C1)c1cc2n(n1)CCC(c1ccccc1F)O2` (stereo partly shown) [Example 550] displayed an IC50 of less than 1 µM.

Take `COc1c(C(F)(F)F)ccc2c1C[C@@H](NC(=O)c1cc3n(n1)CCC(C(F)F)O3)CO2` (stereo partly shown) [Example 551]: the IC50 was less than 10 µM.

In turn, `N#CC1(COCC2CCn3nc(C(=O)N[C@H]4COc5ccc(C(F)(F)F)cc5C4)cc3O2)CC1` (stereo partly shown) [Example 553] displayed an IC50 of less than 10 µM.

The molecule `N#Cc1ccc2c(c1)C[C@@H](NC(=O)c1cc3n(n1)CCC(COCC(F)(F)F)CO3)CO2` (stereo partly shown) [Example 555] registered an IC50 of less than 1 µM.

With `O=C(N[C@H]1COc2ccc(CC(F)F)cc2C1)c1cc2n(n1)CCC(COCC(F)(F)F)CO2` (stereo partly shown) [Example 557], the IC50 is less than 1 µM.

Turning to `O=C(N[C@H]1COc2ccc(C(F)(F)F)cc2C1O)c1cc2n(n1)CCC(COCC1CC1)O2` (stereo partly shown) [Example 558], the IC50 was less than 1 µM.

In turn, `O=C(N[C@H]1COc2ccc(C(F)(F)F)cc2C1O)c1cc2n(n1)CCC(COCC1CC1)O2` (stereo partly shown) [Example 559] came in with an IC50 of less than 10 µM.

In turn, `O=C(N[C@H]1COc2ccc(C(F)(F)F)cc2C1O)c1cc2n(n1)CC(COCC1CC1)O2` (stereo partly shown) [Example 560] registered an IC50 of less than 1 µM.

The molecule `O=C(N[C@H]1COc2ccc(C(F)(F)F)cc2C1O)c1cc2n(n1)CCC(COCC(F)(F)F)O2` (stereo partly shown) [Example 561] had an IC50 of less than 10 µM.

As to `N#Cc1ccc2c(c1)C[C@@H](NC(=O)c1cc3n(n1)CCC(CC(F)(F)F)O3)CO2` (stereo partly shown) [Example 562], the IC50 is less than 10 µM.

`O=C(N[C@H]1COc2ccc(CC(F)F)cc2C1)c1cc2n(n1)CC(CC1CCOCC1)O2` (stereo partly shown) [Example 564] came in with an IC50 of less than 10 µM.

Consider `N#Cc1ccc2c(c1)C[C@@H](NC(=O)c1cc3n(n1)CC(CC1CCOCC1)O3)CO2` (stereo partly shown) [Example 565], for which the IC50 was less than 1 µM.

As for `O=C(N[C@H]1COc2ccc(I)cc2C1)c1cc2n(n1)CCC(C(F)F)O2` (stereo partly shown) [Example 566], the IC50 is less than 1 µM.

In turn, `O=C(N[C@H]1COc2ccc(CC(F)F)cc2C1)c1cc2n(n1)CCC(COCC1(F)CC1)O2` (stereo partly shown) [Example 567] had a concentration for half-maximal inhibition (IC50) of less than 1 µM.

`COC1c2cc(C(F)(F)F)ccc2OC[C@@H]1NC(=O)c1cc2n(n1)CC(COCC(F)(F)F)O2` (stereo partly shown) [Example 569]: the IC50 is less than 1 µM.

Take `COC1c2cc(C(F)(F)F)ccc2OC[C@@H]1NC(=O)c1cc2n(n1)CCC(COCC(F)(F)F)O2` (stereo partly shown) [Example 570]: the IC50 is less than 1 µM.

`O=C(NC1COc2ccc(Cl)cc2C1O)c1cc2n(n1)CCC(COCC1CC1)O2` (stereo not shown) [Example 571] displayed a concentration for half-maximal inhibition (IC50) of less than 10 µM.

`N#Cc1ccc2c(c1)C(O)C(NC(=O)c1cc3n(n1)CCC(c1ccccc1F)O3)CO2` (stereo not shown) [Example 573] gave an IC50 of less than 10 µM.

The molecule `O=C(N[C@H]1COc2cccc(Cl)c2C1)c1cc2n(n1)CCC(COCC(F)(F)F)O2` (stereo partly shown) [Example 574] came in with an IC50 of less than 1 µM.

`Cc1cccc(-c2c(C(=O)N[C@H]3COc4ccc(C(F)(F)F)cc4C3O)nn3c2COCC3)n1` (stereo partly shown) [Example 580] returned an IC50 of less than 1 µM.

In the case of `CCc1cccc(-c2c(C(=O)N[C@H]3COc4ccc(C(F)(F)F)cc4C3O)nn3c2COCC3)n1` (stereo partly shown) [Example 581], the IC50 is less than 1 µM.

In turn, `CCC1(O)CCn2nc(C(=O)N[C@H]3COc4ccc(C(F)(F)F)cc4C3)cc2OC1` (stereo partly shown) [Example 582] gave an IC50 of less than 10 µM.

Molecule `O=C(N[C@H]1COc2ccc(C(F)(F)F)cc2C1)c1cc2n(n1)CCC(C1CCOCC1)O2` (stereo partly shown) [Example 583] displayed an IC50 of less than 1 µM.

For `O=C(N[C@H]1COc2ccc(Cl)cc2C1)c1cc2n(n1)CCC(C1CCOCC1)O2` (stereo partly shown) [Example 584], the IC50 is less than 1 µM.

For `N#Cc1ccc2c(c1)C[C@@H](NC(=O)c1cc3n(n1)CCC(C1CCOCC1)O3)CO2` (stereo partly shown) [Example 585], the IC50 was less than 10 µM.

Molecule `O=C(N[C@H]1COc2ccc(CC(F)F)cc2C1)c1cc2n(n1)CCC(C1CCOCC1)O2` (stereo partly shown) [Example 586] displayed a 50% inhibitory concentration (IC50) of less than 1 µM.

For `O=C(N[C@H]1COc2ccc(C(F)(F)F)cc2C1O)c1cc2n(n1)CC(CSCC(F)(F)F)O2` (stereo partly shown) [Example 587], the IC50 was less than 10 µM.

Turning to `O=C(N[C@H]1COc2ccc(C(F)(F)F)cc2C1O)c1cc2n(n1)CC(CCOCC(F)(F)F)O2` (stereo partly shown) [Example 588], the IC50 is less than 1 µM.

On to `O=C(N[C@H]1COc2ccc(C(F)(F)F)cc2C1O)c1cc2n(n1)CC(CCOCC(F)(F)F)O2` (stereo partly shown) [Example 589], for which the concentration for half-maximal inhibition (IC50) is less than 10 µM.

As to `O=C(N[C@H]1COc2ccc(C(F)(F)F)cc2C1O)c1cc2n(n1)CC(CCCOCC(F)(F)F)O2` (stereo partly shown) [Example 591], the IC50 was less than 1 µM.

In the case of `O=C(N[C@H]1COc2ccc(C(F)(F)F)cc2C1O)c1cc2n(n1)CC(CCCOCC(F)(F)F)O2` (stereo partly shown) [Example 592], the IC50 is less than 10 µM.

`O=C(N[C@H]1COc2ccc(C(F)(F)F)cc2C1O)c1cc2n(n1)CC(CCOCC1CC1)O2` (stereo partly shown) [Example 595]: the IC50 is less than 1 µM.

For `CCC1CCn2nc(C(=O)N[C@H]3COc4ccc(C(F)(F)F)cc4C3O)cc2O1` (stereo partly shown) [Example 599], the IC50 is less than 1 µM.

For `O=C(N[C@H]1COc2ccc(COCC(F)(F)F)cc2C1)c1cc2n(n1)CCC(C1CCOCC1)O2` (stereo partly shown) [Example 606], the IC50 was less than 1 µM.

Molecule `O=C(N[C@H]1COc2ccc(C(F)(F)F)cc2C1O)c1cc2n(n1)CC(CCCOCC(F)F)O2` (stereo partly shown) [Example 607] had an IC50 of less than 1 µM.

Take `O=C(N[C@H]1COc2ccc(C(F)(F)F)cc2C1O)c1cc2n(n1)CC(CCCOCC(F)F)O2` (stereo partly shown) [Example 609]: the IC50 was less than 10 µM.

On to `O=C(N[C@H]1COc2ccc(Cl)cc2C1)c1cc2n(n1)CCC(C1CCOC1)O2` (stereo partly shown) [Example 611], for which the IC50 was less than 1 µM.

In the case of `O=C(N[C@H]1COc2ccc(C(F)(F)F)cc2C1)c1cc2n(n1)CCC(C1CCOC1)O2` (stereo partly shown) [Example 612], the IC50 was less than 10 µM.

In the case of `O=C(N[C@H]1COc2ccc(C(F)(F)F)cc2C1F)c1cc2n(n1)CCC(C1CCOC1)O2` (stereo partly shown) [Example 613], the IC50 was less than 1 µM.

`CC1(COCC2CC2)Cn2nc(C(=O)N[C@H]3COc4ccc(C#N)cc4C3)cc2O1` (stereo partly shown) [Example 618] yielded an IC50 of less than 10 µM.

`CC1(COCC2CC2)Cn2nc(C(=O)N[C@H]3COc4ccc(CC(F)F)cc4C3)cc2O1` (stereo partly shown) [Example 619] yielded an IC50 of less than 10 µM.

For the molecule `O=C(N[C@H]1COc2ccc(C(F)(F)F)cc2C1)c1cc2n(n1)CCC(C1COCCO1)O2` (stereo partly shown) [Example 620], the IC50 was less than 1 µM.

For the molecule `COC1c2cc(C(F)(F)F)ccc2OC[C@@H]1NC(=O)c1cc2n(n1)CC(CCOCC(F)(F)F)O2` (stereo partly shown) [Example 621], the IC50 was less than 1 µM.

On to `N#Cc1ccc2c(c1)C[C@@H](NC(=O)c1cc3n(n1)CC(CCC1CCOCC1)O3)CO2` (stereo partly shown) [Example 623], for which the IC50 was less than 1 µM.

On to `O=C(N[C@H]1COc2ccc(C(F)(F)F)cc2C1F)c1cc2n(n1)CCC(COCC(F)F)O2` (stereo partly shown) [Example 624], for which the IC50 was less than 1 µM.

Molecule `O=C(N[C@H]1COc2ccc(C(F)(F)F)cc2C1F)c1cc2n(n1)CCN(CCOC1CCC1)C2` (stereo partly shown) [Example 625] displayed an IC50 of less than 1 µM.

In turn, `O=C(NC1COc2ccc(F)c(F)c2C1)c1cc2n(n1)CCC(C(F)(F)F)O2` (stereo not shown) [Example 626] displayed an IC50 of less than 10 µM.

Regarding `O=C(NC1COc2ccc(F)c(F)c2C1)c1cc2n(n1)CCC(COCC(F)(F)F)O2` (stereo not shown) [Example 627], the IC50 was less than 10 µM.

`O=C(NC1COc2ccc(F)c(F)c2C1)c1cc2n(n1)CC(CCCOCC(F)(F)F)O2` (stereo not shown) [Example 628] showed an IC50 of less than 1 µM.

On to `O=C(NC1COc2ccc(F)c(F)c2C1)c1cc2n(n1)CC(CCOCC(F)(F)F)O2` (stereo not shown) [Example 629], for which the IC50 was less than 1 µM.

`O=C(N[C@H]1COc2ccc(COCC(F)(F)F)cc2C1)c1cc2n(n1)CCC(C1CCOC1)O2` (stereo partly shown) [Example 630]: the IC50 is less than 1 µM.

In the case of `O=C(N[C@H]1COc2ccc(COCC(F)(F)F)cc2C1)c1cc2n(n1)CCC(C1COCCO1)O2` (stereo partly shown) [Example 631], the 50% inhibitory concentration (IC50) is less than 1 µM.
